This passage reports EC50 and IC50 results from patent US8546608B2, “Proteasome inhibitors and methods of using the same” (Cephalon, Inc., priority 2003, dated 2013).

Assay [1] deals with T1, proteasome in Molt-4 cells (human leukemia) (Homo sapiens, UniProt P20618+P28074).
T1 sequence (P28074 60-263): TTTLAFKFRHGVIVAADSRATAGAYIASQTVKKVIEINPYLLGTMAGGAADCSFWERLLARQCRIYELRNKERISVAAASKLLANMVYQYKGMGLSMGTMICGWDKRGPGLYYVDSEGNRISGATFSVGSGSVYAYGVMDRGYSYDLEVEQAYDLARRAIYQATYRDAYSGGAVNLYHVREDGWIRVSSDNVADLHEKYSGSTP
T1 sequence (P20618 29-241): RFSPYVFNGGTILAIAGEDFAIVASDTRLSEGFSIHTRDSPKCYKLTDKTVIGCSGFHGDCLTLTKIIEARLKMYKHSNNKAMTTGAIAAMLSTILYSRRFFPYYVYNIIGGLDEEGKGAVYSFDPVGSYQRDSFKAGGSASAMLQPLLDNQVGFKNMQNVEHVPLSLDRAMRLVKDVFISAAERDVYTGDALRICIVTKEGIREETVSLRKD
The format is cell-based. The settings on record: assay of Example E, inhibition of MOLT4; read-out: MOLT4 (EC50). Put shortly:
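Intact Molt-4 cells (6×10^6 cells/mL) in HEPES-buffered saline were preincubated with inhibitor 15 min at 37 °C, then given cell-permeable MeOSuc-FLF-AFC at 25 μM final.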

Assay [2] concerns the target T2, 20S Human Erythrocyte Proteasome (HEP) (Homo sapiens, UniProt P20618+P28074).
T2 construct: 20S Human Erythrocyte Proteasome (HEP), purchased from Immatics Biotechnologies Inc; purchased Immatics Biotechnologies Inc., Tübingen, Germany; host or cells: human erythrocytes (natural source)
The experiment in a line: Chymotrypsin-like activity of 20S Human Erythrocyte Proteasome (HEP), IC50 determination. The class given is biochemical. Particulars: assay of Example C, inhibition of HEP. Put shortly: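 20S proteasome at 0.2 μg/mL (about 0.6 nM catalytic sites) in 20 mM Tris with 0.04% SDS, preincubated 15 min at 37° C with inhibitor before Suc-LLVY-AMC (100 μM final). AMC fluorescence read in the linear range; triplicates, IC50 from concentration series.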

In general, EC50 refers to the midpoint of the concentration-response curve. One may read the IC50 as the concentration needed to halve the response being measured. A high value points to a need for much substance. As to `CCc1ccc(CCC(=O)N[C@@H](CCCNC(=N)N[N+](=O)[O-])C(=O)N[C@@H](CC(C)C)B2O[C@@H]3C[C@@H]4C[C@@H](C4(C)C)[C@]3(C)O2)cc1` [D.3.191, 3-[4-(Ethyl)phenyl]propanamide, N-[(1S)-1-[[[(1R)-1-[(3aS,4S,6S,7aR)-hexahydro-3a,5,5-trimethyl-4,6-methano-1,3,2-benzodioxaborol-2-yl]-3-methylbutyl]amino]carbonyl]-4-[[imino(nitroamino)methyl]amino]butyl]], the EC50 in assay [1] is under 200 nM. This molecule displayed a half-inhibitory concentration (IC50) in assay [2] of under 10 nM.
For `CC(C)C[C@H](NC(=O)[C@H](CCCNC(=N)N[N+](=O)[O-])NC(=O)CCCCCO)B1O[C@@H]2C[C@@H]3C[C@@H](C3(C)C)[C@]2(C)O1` [D.3.192, 6-hydroxyhexanamide, N-[(1S)-1-[[[(1R)-1-[(3aS,4S,6S,7aR)-hexahydro-3a,5,5-trimethyl-4,6-methano-1,3,2-benzodioxaborol-2-yl]-3-methylbutyl]amino]carbonyl]-4-[[imino(nitroamino)methyl]amino]butyl]], in that order: 2000 to 10000 nM and under 100 nM.
For `CCCCCCCCCCS(=O)(=O)N[C@@H](CCCNC(=N)N[N+](=O)[O-])C(=O)N[C@@H](CC(C)C)B1O[C@@H]2C[C@@H]3C[C@@H](C3(C)C)[C@]2(C)O1` [D.4.3, Decane-1-sulfonamide, N-[(1S)-1-[[[(1R)-1-[(3aS,4S,6S,7aR)-hexahydro-3a,5,5-trimethyl-4,6-methano-1,3,2-benzodioxaborol-2-yl]-3-methylbutyl]amino]carbonyl]-4-[[imino(nitroamino)methyl]amino]butyl]], in that order: under 200 nM and under 10 nM.
For `CCCCCCCCS(=O)(=O)N[C@@H](CCCNC(=N)N[N+](=O)[O-])C(=O)N[C@@H](CC(C)C)B1O[C@@H]2C[C@@H]3C[C@@H](C3(C)C)[C@]2(C)O1` [D.4.4, Octanesulfonamide, N-[(1S)-1-[[[(1R)-1-[(3aS,4S,6S,7aR)-hexahydro-3a,5,5-trimethyl-4,6-methano-1,3,2-benzodioxaborol-2-yl]-3-methylbutyl]amino]carbonyl]-4-[[imino(nitroamino)methyl]amino]butyl]], in that order: under 200 nM and under 10 nM.
In the case of `CCCCOc1ccc(S(=O)(=O)N[C@@H](CCCNC(=N)N[N+](=O)[O-])C(=O)N[C@@H](CC(C)C)B2O[C@@H]3C[C@@H]4C[C@@H](C4(C)C)[C@]3(C)O2)cc1` [D.4.6, 4-Butoxyenzenesulfonamide, N-[(1S)-1-[[[(1R)-1-[(3aS,4S,6S,7aR)-hexahydro-3a,5,5-trimethyl-4,6-methano-1,3,2-benzodioxaborol-2-yl]-3-methylbutyl]amino]carbonyl]-4-[[imino(nitroamino)methyl]amino]butyl]], the EC50 in assay [1] was under 200 nM. In assay [2], this molecule gave an IC50 of under 100 nM.
On the same counts, the results for `CCCCc1ccc(S(=O)(=O)N[C@@H](CCCNC(=N)N[N+](=O)[O-])C(=O)N[C@@H](CC(C)C)B2O[C@@H]3C[C@@H]4C[C@@H](C4(C)C)[C@]3(C)O2)cc1` [D.4.7, 4-Butyl-benzenesulfonamide, N-[(1S)-1-[[[(1R)-1-[(3aS,4S,6S,7aR)-hexahydro-3a,5,5-trimethyl-4,6-methano-1,3,2-benzodioxaborol-2-yl]-3-methylbutyl]amino]carbonyl]-4-[[imino(nitroamino)methyl]amino]butyl]] are under 200 nM and under 100 nM.
For `CCCCCc1ccc(S(=O)(=O)N[C@@H](CCCNC(=N)N[N+](=O)[O-])C(=O)N[C@@H](CC(C)C)B2O[C@@H]3C[C@@H]4C[C@@H](C4(C)C)[C@]3(C)O2)cc1` [D.4.8, 4-Pentyl-benzenesulfonamide, N-[(1S)-1-[[[(1R)-1-[(3aS,4S,6S,7aR)-hexahydro-3a,5,5-trimethyl-4,6-methano-1,3,2-benzodioxaborol-2-yl]-3-methylbutyl]amino]carbonyl]-4-[[imino(nitroamino)methyl]amino]butyl]], in that order: under 200 nM and under 100 nM.
With `CC(C)C[C@H](NC(=O)[C@@H](NS(=O)(=O)c1ccc2ccccc2c1)[C@@H](C)O)B1O[C@@H]2C[C@@H]3C[C@@H](C3(C)C)[C@]2(C)O1` [D.4.9, Naphthalene-2-sulfonamide, N-[(1S,2R)-1-[[[(1R)-1-[(3aS,4S,6S,7aR)-hexahydro-3a,5,5-trimethyl-4,6-methano-1,3,2-benzodioxaborol-2-yl]-3-methylbutyl]amino]carbonyl]-2-hydroxypropyl]], the concentration for a half-maximal effect (EC50) in assay [1] was under 200 nM. Further, the IC50 in assay [2] is under 100 nM.
For `CCCCCCCNC(=O)N[C@@H](CCCNC(=N)N[N+](=O)[O-])C(=O)N[C@@H](CC(C)C)B1O[C@@H]2C[C@@H]3C[C@@H](C3(C)C)[C@]2(C)O1` [D.6.3, N-[(1S)-1-[[[(1R)-1-[(3aS,4S,6S,7aR)-hexahydro-3a,5,5-trimethyl-4,6-methano-1,3,2-benzodioxaborol-2-yl]-3-methylbutyl]amino]carbonyl]-4-[[imino(nitroamino)methyl]amino]butyl]-N′-heptyl urea], in that order: under 200 nM and under 10 nM.
For the molecule `CCCCCCCCCCCNC(=O)N[C@@H](CCCNC(=N)N[N+](=O)[O-])C(=O)N[C@@H](CC(C)C)B1O[C@@H]2C[C@@H]3C[C@@H](C3(C)C)[C@]2(C)O1` [D.6.5, N-[(1S)-1-[[[(1R)-1-[(3aS,4S,6S,7aR)-hexahydro-3a,5,5-trimethyl-4,6-methano-1,3,2-benzodioxaborol-2-yl]-3-methylbutyl]amino]carbonyl]-4-[[imino(nitroamino)methyl]amino]butyl]-N′-undecylurea], the 50% effective concentration (EC50) in assay [1] was under 200 nM. In assay [2], this molecule displayed a half-inhibitory concentration (IC50) of under 10 nM.
For `CCCCc1ccc(NC(=O)N[C@@H](CCCNC(=N)N[N+](=O)[O-])C(=O)N[C@@H](CC(C)C)B2O[C@@H]3C[C@@H]4C[C@@H](C4(C)C)[C@]3(C)O2)cc1` [D.6.8, N-[(1S)-1-[[[(1R)-1-[(3aS,4S,6S,7aR)-hexahydro-3a,5,5-trimethyl-4,6-methano-1,3,2-benzodioxaborol-2-yl]-3-methylbutyl]amino]carbonyl]-4-[[imino(nitroamino)methyl]amino]butyl]-N′-(4-butylphenyl) urea], in that order: under 200 nM and under 100 nM.
Regarding `CCCCCCCOc1ccc(NC(=O)N[C@@H](CCCNC(=N)N[N+](=O)[O-])C(=O)N[C@@H](CC(C)C)B2O[C@@H]3C[C@@H]4C[C@@H](C4(C)C)[C@]3(C)O2)cc1` [D.6.9, N-[(1S)-1-[[[(1R)-1-[(3aS,4S,6S,7aR)-hexahydro-3a,5,5-trimethyl-4,6-methano-1,3,2-benzodioxaborol-2-yl]-3-methylbutyl]amino]carbonyl]-4-[[imino(nitroamino)methyl]amino]butyl]-N′-(4-heptyloxylphenyl) urea], the EC50 in assay [1] is under 200 nM. The same molecule yielded a half-maximal inhibitory concentration (IC50) in assay [2] of under 10 nM.
For the molecule `COc1ccccc1/C=C/C(=O)N[C@@H](CCCNC(=N)N[N+](=O)[O-])C(=O)N[C@@H](CC(C)C)B(O)O` [D.7.1, Boronic acid, [(1R)-1-[[(2S)-5-[[imino(nitroamino)methyl]amino]-2-[[(2E)-3-(2-methoxyphenyl)-1-oxoprop-2-enyl]amino]-1-oxopentyl]amino]-3-methylbutyl]], the EC50 in assay [1] was in the range of 2000 to 10000 nM. The molecule further had a concentration for half-maximal inhibition (IC50) in assay [2] of under 10 nM.
